The source of these data is US7960563B2, “Indazoles used to treat estrogen receptor beta mediated disorders” (Glaxo Group Limited, priority 2007, dated 2011).

Some results are limits rather than exact numbers.

T1 sequence (Q92731 with tags, fused parts or gaps): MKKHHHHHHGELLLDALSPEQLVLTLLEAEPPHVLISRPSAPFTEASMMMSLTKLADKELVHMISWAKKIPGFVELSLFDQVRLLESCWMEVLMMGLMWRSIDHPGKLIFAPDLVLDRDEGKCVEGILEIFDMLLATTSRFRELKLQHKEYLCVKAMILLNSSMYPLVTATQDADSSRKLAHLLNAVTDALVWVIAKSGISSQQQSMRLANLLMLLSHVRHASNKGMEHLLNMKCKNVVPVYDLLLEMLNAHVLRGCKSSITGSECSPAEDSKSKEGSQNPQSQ

One assay has as its target T1, ERbeta protein (Homo sapiens, UniProt Q92731).
T1 construct: […]; His6 (leader […]) (N)
The assay is described as follows: ER beta FP binding assay. As to conditions: 6 nM ERbeta protein, 1.5 nM ER FP ligand (Fluormone EL Red), 3 hours at room temperature; read-out: pIC50 in the ER beta FP binding assay (converted). How it is done: (§1) Assay Buffer (AB) (50 mM MOPES pH 7.5, 50 mM NaF, 2.5 mM CHAPs), in deionized water, 5 mM 1,4 dithiothreitol (DTT) added on day of the experiment. The appropriate amount of AB was placed in a plastic tube, adding solid DTT before the assay was run. AB with DTT was distributed to plastic tubes. We have found use of plastic to be important vs glass. A final concentration of 6 nM ERbeta protein was added to the tube followed by gentle inversion. A final concentration of 1.5 nM ER FP ligand (Fluormone™ EL Red 200 nM in 20 mM Tris, 90% Methanol purchased from Invitrogen catalogue no P3030) was added to the same tube followed by gentle inversion. This was allowed to sit for 5-10 minutes before adding it to the 384 assay plate. Similar protocol was used for ERalpha with a final concentration of 4 nM ERalpha and 1.5 nM ER FP ligand.
(§2) 384 plates containing test compounds dissolved in 100% DMSO at 1 mM were serially diluted (1:3) by a Beckman FX. Serial diluted test compounds were added, […], to the assay plates with a maximum final concentration of 10 uM. Once the assay plates were ready, 10 uL of the above reagents were added to the appropriate set of plates with the Thermo combi. These plates were then sealed and place at room temperature for 3 hours.
The plates were then placed on the Molecular Devices Analyst and counted (excitation 535 nm, emission 590 nm with a 561 Dichroic mirror). Data was normalized to control then fitted to a non-linear least squares algorithm (see below).
pIC50 Calculation y=a+((b−a)/(1+(10^x/10^c)^d) Results
The amino acid sequence of human ER beta used in this assay is […]
Consider `Oc1ccc(-n2ncc3c(O)cccc32)cc1F` [Example 1, 1-(3-Fluoro-4-hydroxyphenyl)-1H-indazol-4-ol], for which the IC50 is under 100 nM. On the same count and under the same terms, the figure for `N#Cc1cc(O)c2cnn(-c3ccc(O)c(F)c3)c2c1` [Example 3, 1-(3-Fluoro-4-hydroxyphenyl)-4-hydroxy-1H-indazole-6-carbonitrile] is under 100 nM. As for `Oc1ccc(-n2ncc3c(O)cc(F)cc32)cc1F` [Example 4, 6-Fluoro-1-(3-fluoro-4-hydroxyphenyl)-1H-indazol-4-ol], the IC50 is under 100 nM. The same measure, in the same setting: then `Oc1ccc(-n2ncc3c(O)cc(Br)cc32)cc1F` [Example 5, 6-Bromo-1-(3-fluoro-4-hydroxyphenyl)-1H-indazol-4-ol], with under 100 nM; and `C=Cc1cc(O)c2cnn(-c3ccc(O)c(F)c3)c2c1` [Example 6, 6-Ethenyl-1-(3-fluoro-4-hydroxyphenyl)-1H-indazol-4-ol], with under 100 nM; and `CCc1cc(O)c2cnn(-c3ccc(O)c(F)c3)c2c1` [Example 7, 6-Ethyl-1-(3-fluoro-4-hydroxyphenyl)-1H-indazol-4-ol], with under 100 nM. On the same count and under the same terms, then `Oc1ccc(-n2ncc3c(O)cc(Cl)cc32)cc1F` [Example 8, 6-Chloro-1-(3-fluoro-4-hydroxyphenyl)-1H-indazol-4-ol], with under 100 nM; and `Cc1cc(O)c2cnn(-c3ccc(O)c(F)c3)c2c1` [Example 9, 1-(3-Fluoro-4-hydroxyphenyl)-6-methyl-1H-indazol-4-ol], with under 100 nM; and `Oc1ccc(-n2ncc3c(O)c(F)ccc32)cc1F` [Example 10, 5-Fluoro-1-(3-fluoro-4-hydroxyphenyl)-1H-indazol-4-ol], with under 100 nM. On the same count and under the same terms, the figure for `Oc1ccc(-n2ncc3c(O)c(Br)ccc32)cc1F` [Example 11, 5-Bromo-1-(3-fluoro-4-hydroxyphenyl)-1H-indazol-4-ol] is under 100 nM.

Turning to `Oc1ccc(-n2ncc3c(O)ccc(F)c32)cc1F` [Example 13, 7-Fluoro-1-(3-fluoro-4-hydroxyphenyl)-1H-indazol-4-ol], the IC50 is under 100 nM. The same measure, in the same setting: the figure for `Oc1ccc(-n2ncc3c(O)ccc(Cl)c32)cc1F` [Example 14, 7-Chloro-1-(3-fluoro-4-hydroxyphenyl)-1H-indazol-4-ol] is under 100 nM; for `Oc1ccc(-n2ncc3c(O)cccc32)cc1Cl` [Example 17, 1-(3-Chloro-4-hydroxyphenyl)-1H-indazol-4-ol] it is under 100 nM.

A further assay deals with T2, ERalpha (Homo sapiens, UniProt P03372).
T2 construct: […]; His6 (leader […]G) (N)
T2 sequence (P03372 with tags, fused parts or gaps): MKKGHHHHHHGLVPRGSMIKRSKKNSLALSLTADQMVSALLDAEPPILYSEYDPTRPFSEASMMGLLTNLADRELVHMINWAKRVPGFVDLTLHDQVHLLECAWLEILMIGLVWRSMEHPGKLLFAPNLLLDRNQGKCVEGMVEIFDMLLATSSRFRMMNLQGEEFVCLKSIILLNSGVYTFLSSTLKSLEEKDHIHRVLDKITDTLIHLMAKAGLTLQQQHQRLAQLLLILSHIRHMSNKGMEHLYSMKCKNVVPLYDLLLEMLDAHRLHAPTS
The assay can be described thus: ER alpha FP binding assay. As to conditions: ER beta versus ER alpha, FP binding assays. Here is the method:
as §1, §2
The plates were then placed on the Molecular Devices Analyst and counted (excitation 535 nm, emission 590 nm with a 561 Dichroic mirror). […]
For the molecule `Oc1ccc(-n2ncc3c(O)cccc32)cc1F` [Example 1, 1-(3-Fluoro-4-hydroxyphenyl)-1H-indazol-4-ol], the “selectivity versus ER alpha” value is over 10 fold.
